Assay results published in the supplement of paper PMC10307832.

Assays:
Assay in all cases: relative viability (nuclei count vs DMSO), 5 days (fraction); higher = more cells survive
HCC-78 = test system: HCC-78
Outline: (§1)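 Lung cancer cell lines, seeded in 1536-well plates, were treated the following day by pin tool with a single drug or with five library-drug doses (not always all listed) in √10 steps on top of a fixed anchor-drug dose. Cells were fixed and nuclei stained in one step after 5 days, and nuclei were counted. Relative viability is the nuclei count for treated wells divided by that for vehicle wells, reported as medians of duplicate plates.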

LK-2 = test system: LK-2
Outline: as §1

NCI-H1975 = test system: NCI-H1975
Outline: as §1

BEN = test system: BEN
Outline: as §1

NCI-H2087 = test system: NCI-H2087
Outline: as §1

LCLC-97TM1 = test system: LCLC-97TM1
Outline: as §1

PC-3 [JPC-3] = test system: PC-3 [JPC-3]
Outline: as §1

NCI-H1666 = test system: NCI-H1666
Outline: as §1

ChaGo-K-1 = test system: ChaGo-K-1
Outline: as §1

NCI-H2342 = test system: NCI-H2342
Outline: as §1

NCI-H1944 = test system: NCI-H1944
Outline: as §1

NCI-H596 = test system: NCI-H596
Outline: as §1

NCI-H1651 = test system: NCI-H1651
Outline: as §1

LC-2-ad = test system: LC-2-ad
Outline: as §1

NCI-H358 = test system: NCI-H358
Outline: as §1

NCI-H1355 = test system: NCI-H1355
Outline: as §1

NCI-H650 = test system: NCI-H650
Outline: as §1

LU99A = test system: LU99A
Outline: as §1

NCI-H838 = test system: NCI-H838
Outline: as §1

LXF-289 = test system: LXF-289
Outline: as §1

CC(=O)O[C@@]12CO[C@@H]1C[C@H](O)[C@@]1(C)C(=O)[C@H](O)C3=C(C)[C@@H](OC(=O)[C@H](O)[C@@H](NC(=O)OC(C)(C)C)c4ccccc4)C[C@@](O)([C@@H](OC(=O)c4ccccc4)[C@H]21)C3(C)C [Docetaxel] + NC(=O)Nc1cc(-c2cccc(F)c2)sc1C(=O)N[C@H]1CCCNC1 [AZD7762] (partner 0.2 µM)
relative viability (HCC-78; first compound 0.0002 µM): 0.479 | relative viability (HCC-78; first compound 0.000632 µM): 0.545 | relative viability (HCC-78; first compound 0.002 µM): 0.318 | relative viability (HCC-78; first compound 0.006325 µM): 0.394 | relative viability (HCC-78; first compound 0.02 µM): 0.364 | relative viability (LK-2; first compound 0.0002 µM): 0.337 | relative viability (LK-2; first compound 0.000632 µM): 0.277 | relative viability (LK-2; first compound 0.002 µM): 0.113 | relative viability (LK-2; first compound 0.006325 µM): 0.112 | relative viability (LK-2; first compound 0.02 µM): 0.0712 | relative viability (NCI-H1975; first compound 0.0002 µM): 0.721 | relative viability (NCI-H1975; first compound 0.000632 µM): 0.601 | relative viability (NCI-H1975; first compound 0.002 µM): 0.389 | relative viability (NCI-H1975; first compound 0.006325 µM): 0.24 | relative viability (NCI-H1975; first compound 0.02 µM): 0.169 | relative viability (BEN; first compound 0.0002 µM): 0.553 | relative viability (BEN; first compound 0.000632 µM): 0.822 | relative viability (BEN; first compound 0.002 µM): 0.483 | relative viability (BEN; first compound 0.006325 µM): 0.412 | relative viability (BEN; first compound 0.02 µM): 0.307 | relative viability (NCI-H2087; first compound 0.0002 µM): 1.23 | relative viability (NCI-H2087; first compound 0.000632 µM): 0.822 | relative viability (NCI-H2087; first compound 0.002 µM): 0.203 | relative viability (NCI-H2087; first compound 0.006325 µM): 0.236 | relative viability (NCI-H2087; first compound 0.02 µM): 0.108 | relative viability (LCLC-97TM1; first compound 0.0002 µM): 0.194 | relative viability (LCLC-97TM1; first compound 0.000632 µM): 0.221 | relative viability (LCLC-97TM1; first compound 0.002 µM): 0.078 | relative viability (LCLC-97TM1; first compound 0.006325 µM): 0.0825 | relative viability (LCLC-97TM1; first compound 0.02 µM): 0.0475 | relative viability (PC-3 [JPC-3]; first compound 0.0002 µM): 0.761 | relative viability (PC-3 [JPC-3]; first compound 0.000632 µM): 0.69 | relative viability (PC-3 [JPC-3]; first compound 0.002 µM): 0.441 | relative viability (PC-3 [JPC-3]; first compound 0.006325 µM): 0.267 | relative viability (PC-3 [JPC-3]; first compound 0.02 µM): 0.169 | relative viability (NCI-H1666; first compound 0.0002 µM): 0.692 | relative viability (NCI-H1666; first compound 0.000632 µM): 0.695 | relative viability (NCI-H1666; first compound 0.002 µM): 0.521 | relative viability (NCI-H1666; first compound 0.006325 µM): 0.465 | relative viability (NCI-H1666; first compound 0.02 µM): 0.359 | relative viability (ChaGo-K-1; first compound 0.0002 µM): 0.817 | relative viability (ChaGo-K-1; first compound 0.000632 µM): 0.792 | relative viability (ChaGo-K-1; first compound 0.002 µM): 0.578 | relative viability (ChaGo-K-1; first compound 0.006325 µM): 0.27 | relative viability (ChaGo-K-1; first compound 0.02 µM): 0.161 | relative viability (NCI-H2342; first compound 0.0002 µM): 0.46 | relative viability (NCI-H2342; first compound 0.000632 µM): 0.56 | relative viability (NCI-H2342; first compound 0.002 µM): 0.405 | relative viability (NCI-H2342; first compound 0.006325 µM): 0.41 | relative viability (NCI-H2342; first compound 0.02 µM): 0.363 | relative viability (NCI-H1944; first compound 0.0002 µM): 0.667 | relative viability (NCI-H1944; first compound 0.000632 µM): 0.476 | relative viability (NCI-H1944; first compound 0.002 µM): 0.339 | relative viability (NCI-H1944; first compound 0.006325 µM): 0.25 | relative viability (NCI-H1944; first compound 0.02 µM): 0.102 | relative viability (NCI-H596; first compound 0.0002 µM): 1.07 | relative viability (NCI-H596; first compound 0.000632 µM): 0.934 | relative viability (NCI-H596; first compound 0.002 µM): 1 | relative viability (NCI-H596; first compound 0.006325 µM): 0.581 | relative viability (NCI-H596; first compound 0.02 µM): 0.397 | relative viability (NCI-H1651; first compound 0.0002 µM): 0.345 | relative viability (NCI-H1651; first compound 0.000632 µM): 0.507 | relative viability (NCI-H1651; first compound 0.002 µM): 0.394 | relative viability (NCI-H1651; first compound 0.006325 µM): 0.13 | relative viability (LC-2-ad; first compound 0.0002 µM): 0.8 | relative viability (LC-2-ad; first compound 0.000632 µM): 0.353 | relative viability (LC-2-ad; first compound 0.002 µM): 0.224 | relative viability (LC-2-ad; first compound 0.006325 µM): 0.274 | relative viability (LC-2-ad; first compound 0.02 µM): 0.178 | relative viability (NCI-H358; first compound 0.0002 µM): 0.429 | relative viability (NCI-H358; first compound 0.000632 µM): 0.328 | relative viability (NCI-H358; first compound 0.006325 µM): 0.24 | relative viability (NCI-H358; first compound 0.02 µM): 0.159 | relative viability (NCI-H1355; first compound 0.0002 µM): 0.698 | relative viability (NCI-H1355; first compound 0.000632 µM): 0.758 | relative viability (NCI-H1355; first compound 0.002 µM): 0.411 | relative viability (NCI-H1355; first compound 0.02 µM): 0.191 | relative viability (NCI-H650; first compound 0.0002 µM): 0.946 | relative viability (NCI-H650; first compound 0.000632 µM): 0.485 | relative viability (NCI-H650; first compound 0.002 µM): 0.363 | relative viability (NCI-H650; first compound 0.006325 µM): 0.28 | relative viability (NCI-H650; first compound 0.02 µM): 0.239 | relative viability (LU99A; first compound 0.0002 µM): 0.328 | relative viability (LU99A; first compound 0.000632 µM): 0.253 | relative viability (LU99A; first compound 0.002 µM): 0.194 | relative viability (LU99A; first compound 0.006325 µM): 0.228 | relative viability (LU99A; first compound 0.02 µM): 0.104 | relative viability (NCI-H838; first compound 0.0002 µM): 0.955 | relative viability (NCI-H838; first compound 0.000632 µM): 0.915 | relative viability (NCI-H838; first compound 0.002 µM): 0.639 | relative viability (NCI-H838; first compound 0.006325 µM): 0.606 | relative viability (NCI-H838; first compound 0.02 µM): 0.574 | relative viability (LXF-289; first compound 0.0002 µM): 1.1 | relative viability (LXF-289; first compound 0.000632 µM): 0.664 | relative viability (LXF-289; first compound 0.002 µM): 0.346 | relative viability (LXF-289; first compound 0.006325 µM): 0.129 | relative viability (LXF-289; first compound 0.02 µM): 0.0873
